# Results reported in US7625948B2, “Ester compound and medicinal use thereof” (Japan Tobacco Inc., priority 2002, dated 2009).
# System: HepG2 cells
# Assay: Test Example 2: inhibition of apolipoprotein B secretion from HepG2 cells, ELISA (also used for metabolites in Test Example 8)
# Format: cell-based
# Conditions: Homo sapiens, 24 hours, apo B in supernatant by ELISA, read-out: Test Example 2 Inhibition of apo B secretion IC50
# Experimental: Inhibition of Apolipoprotein B Secretion from HepG2 Cells
# HepG2 cells were suspended in Dulbecco's Modified Eagle's Medium (DMEM) (containing 10% fetal bovine serum, 100 units/mL penicillin and 100 μg/mL streptomycin), and placed on a 96-well plate (4×10^4 cells/well), then incubated for 24 hours. After removal of the medium, DMEM was replaced by a medium containing a sample dissolved in DMSO or a medium containing DMSO (concentration of DMSO: 0.5%) and incubation was further performed for 24 hours, after which the supernatant was recovered, and concentration of apo B in the supernatant was assayed by Enzyme-Linked Immunosorbent Assay (ELISA)
# ELISA was carried out as follows. Anti-human apo B monoclonal antibody (0.5 μg/well) diluted with a solution of sodium carbonate in sodium bicarbonate buffer (50 mL, pH 9.6) was placed in a 96-well plate for ELISA, and allowed to stand at room temperature for 15 hours. After washing the plate, a blocking solution (250 μL/well) was placed in the well, and allowed to stand at room temperature for 1.5 hours. After washing the plate, a standard and a sample (100 μL/well) were placed in the well and allowed to stand at room temperature for one hour. The standard was prepared by adjusting the concentration of the purified human apo B with the DMEM to 0 to 1000 ng/mL. After washing the plate, an anti-human apo B polyclonal antibody labeled with a horse radish peroxidase which was diluted in 1:1000 with DEME (100 μL/well), and allowed to stand at room temperature for one hour. After washing the plate, 2,2-azinobis(3-ethylbenzothiazoline-6-sulfonic acid) solution (100 μL/well) was placed in the well, and allowed to stand at room temperature for one hour. The reaction was stopped by addition of 2% oxalic acid (100 μL/well), and absorbency at 405 nm was measured. Concentration of apo B in the sample was calculated on the basis of a standard curve of the standard. Inhibition rate (%) was calculated from the assayed values in accordance with the following equation.
# Inhibition rate (%)=100×(1 minus (concentration of apo B in sample group/concentration of apo B in DMSO group).
# Based on the above equation, 50% inhibition concentration (IC50) was determined.
# Inhibitory Activity on MTP and apo B Secretion Inhibition by Metabolites
# In a similar manner to Test Examples 1 and 2, the activity of metabolites was assayed.
row,SMILES,IC50
1,CCOC(=O)C(COC(=O)Cc1ccc(NC(=O)c2ccccc2-c2ccc(C(F)(F)F)cc2)c(N(C)C)c1)(C(=O)OCC)c1ccccc1 [Example 4-6],7.5 nM
2,CCOC(=O)C(COC(=O)Cc1ccc(NC(=O)c2ccccc2-c2ccc(C(F)(F)F)cc2)c(CC(C)C)c1)(C(=O)OCC)c1ccccc1 [Example 1-83],0.23 nM
3,CCNC(=O)C(COC(=O)Cc1ccc(NC(=O)c2ccccc2-c2ccc(C(F)(F)F)cc2)c(C(C)C)c1)(C(=O)NCC)c1ccccc1 [Example 1-79],0.59 nM
4,CCOC(=O)C(COC(=O)Cc1ccc(NC(=O)c2ccccc2-c2ccc(C(F)(F)F)cc2)c(C(=O)OCc2ccccc2)c1)(C(=O)OCC)c1ccccc1 [Example 9-14],41 nM
5,CCOC(=O)C(COC(=O)Cc1cc(Br)c(NC(=O)c2ccccc2-c2ccc(C(F)(F)F)cc2)c(C(=O)N(C)C)c1)(C(=O)OCC)c1ccccn1 [Example 2-59],0.99 nM
6,CCNC(=O)C(CCOC(=O)Cc1ccc(NC(=O)c2ccccc2-c2ccc(C(F)(F)F)cc2)c(CC)c1)(C(=O)NCC)c1ccccc1 [Example 1-81],0.49 nM
7,CCOC(=O)C(COC(=O)Cc1ccc(NC(=O)c2ccccc2Oc2cccc(C(F)(F)F)c2)c(C(=O)N(C)C)c1)(C(=O)OCC)c1ccccc1 [Example 2-97],22 nM
8,CCOC(=O)C(COC(=O)Cc1ccc(NC(=O)c2ccccc2-c2ccc(C(F)(F)F)cc2)c(Br)c1)(C(=O)OCC)c1ccccc1 [Example 1-85],3.2 nM
9,CC(=O)OCC(COC(C)=O)(COC(=O)Cc1ccc(NC(=O)c2ccccc2-c2ccc(C(F)(F)F)cc2)c(C(=O)N(C)C)c1)c1ccccc1 [Example 2-104],3.58 nM
10,CCOC(=O)C(COC(=O)Cc1ccc(NC(=O)c2ccccc2-c2ccc(C(F)(F)F)cc2)c(-c2nc(C)cs2)c1)(C(=O)OCC)c1ccccc1 [Example 9-23],8.77 nM
11,CCOC(=O)C(COC(=O)Cc1ccc(NC(=O)c2ccccc2Oc2ccc(C(F)(F)F)cc2)c(C(=O)N(C)C)c1)(C(=O)OCC)c1ccccc1 [Example 2-99],19 nM
12,CCOC(=O)C(COC(=O)Cc1ccc(NC(=O)c2ccccc2-c2ccc(C(F)(F)F)cc2)c(C(=O)N(C)C)c1)(C(=O)OCC)c1ccc(Cl)cc1 [Example 2-73],2.93 nM
13,CCNC(=O)C(COC(=O)Cc1ccc(NC(=O)c2ccccc2-c2ccc(C(F)(F)F)cc2)c(N2CCCC2)c1)(C(=O)NCC)c1ccccc1 [Example 4-3],7.9 nM
14,CCOC(=O)C(COC(=O)Cc1ccc(NC(=O)c2ccc(C(F)(F)F)cc2-c2ccc(C(F)(F)F)cc2)c(C(=O)N(C)C)c1)(C(=O)OCC)c1ccccc1 [Example 2-78],0.14 nM
15,C=CCC(COC(=O)Cc1ccc(NC(=O)c2ccccc2-c2ccc(C(F)(F)F)cc2)c(C(=O)N(C)C)c1)(C(=O)OCC)C(=O)OCC [Example 2-117],38 nM
16,CCOC(=O)C(CCOC(=O)Cc1cccc(NC(=O)c2ccccc2-c2ccc(C(F)(F)F)cc2)c1OC)(C(=O)OCC)c1ccccc1 [Example 5-13],2.4 nM
17,CCOC(=O)C(COC(=O)Cc1ccc(NC(=O)c2ccccc2-c2ccc(C(F)(F)F)cc2)c(C(=O)N(C)C)c1)(C(=O)OCC)c1cccc(C)c1 [Example 2-69],0.91 nM
18,CCOC(=O)C(COC(=O)Cc1ccc(NC(=O)c2ccccc2-c2ccc(CC)cc2)c(C(=O)N(C)C)c1)(C(=O)OCC)c1ccccc1 [Example 2-90],1.74 nM
19,CCOC(=O)C(COC(=O)Cc1ccc(NC(=O)c2cccc(C)c2-c2ccc(C(F)(F)F)cc2)c(C(=O)N(C)C)c1)(C(=O)OCC)c1ccccc1 [Example 2-55],4.2 nM
20,CCOC(=O)C(COC(=O)Cc1ccc(NC(=O)c2cccc(F)c2-c2ccc(C(F)(F)F)cc2)c(C(=O)N(C)C)c1)(C(=O)OCC)c1ccccc1 [Example 2-80],0.79 nM
21,CCC(CC)(COC(=O)Cc1ccc(NC(=O)c2ccccc2-c2ccc(C(F)(F)F)cc2)c(C(=O)N(C)C)c1)c1ccccc1 [Example 2-98],0.97 nM
22,CCOC(=O)C(COC(=O)Cc1ccc(NC(=O)c2ccccc2-c2ccc(C(F)(F)F)cc2)c(C(=O)N(C)C)c1)(C(=O)OCC)c1sccc1C [Example 2-108],0.82 nM
23,CCOC(=O)C(CCOC(=O)Cc1ccc(NC(=O)c2ccccc2-c2ccc(C(F)(F)F)cc2)c(C(=O)N(C)C)c1)(C(=O)OCC)c1ccccc1 [Example 2-32],1.7 nM
24,CCOC(=O)C(COC(=O)Cc1ccc(NC(=O)c2ccccc2-c2ccc(C(F)(F)F)c(F)c2)c(C(=O)N(C)C)c1)(C(=O)OCC)c1ccccc1 [Example 2-61],0.38 nM
25,CCOC(=O)C(COC(=O)Cc1ccc(NC(=O)c2ccccc2Oc2ccccc2)c(C(=O)N(C)C)c1)(C(=O)OCC)c1ccccc1 [Example 2-45],39 nM
26,CCOC(=O)C(COC(=O)Cc1ccc(NC(=O)c2ccccc2-c2ccc(C(F)(F)F)cc2)c(C(=O)N(C)C)c1)(C(=O)OCC)c1cccs1 [Example 2-105],0.2 nM
27,CCOC(=O)C(COC(=O)Cc1cc(C(=O)N(C)C)c(NC(=O)c2ccccc2-c2ccc(C(F)(F)F)cc2)cc1F)(C(=O)OCC)c1ccccc1 [Example 2-58],1.9 nM
28,CCOC(=O)C(COC(=O)Cc1ccc(NC(=O)c2cccc(Cl)c2-c2ccc(C(F)(F)F)cc2)c(C(=O)N(C)C)c1)(C(=O)OCC)c1ccccc1 [Example 2-79],1.3 nM

# Continued by falling IC50, values first:
row,IC50,SMILES
1,360 nM,CCNC(=O)C(COC(=O)Cc1ccc(NC(=O)c2cccnc2-c2ccc(C(F)(F)F)cc2)c(C)c1)(C(=O)NCC)c1ccccc1 [Example 1-77]
2,97 nM,CCNC(=O)C(COC(=O)Cc1ccc(NC(=O)c2sc(C)nc2-c2ccc(C(F)(F)F)cc2)cc1)(C(=O)NCC)c1ccccc1 [Example 1-75]
3,50 nM,CCOC(=O)C(COC(=O)Cc1cc(C(=O)N(C)C)c(NC(=O)c2ccccc2-c2ccc(C(F)(F)F)cc2)cn1)(C(=O)OCC)c1ccccc1 [Example 2-107]
4,45.8 nM,C=C(C)c1cc(C(F)(F)F)ccc1C(=O)Nc1ccc(CC(=O)OCC(C(=O)OCC)(C(=O)OCC)c2ccccc2)cc1C(=O)N(C)C [Example 2-93]
5,14.6 nM,CN(C)C(=O)c1cc(CC(=O)OCC2(c3ccccc3)CCCC2)ccc1NC(=O)c1ccccc1-c1ccc(C(F)(F)F)cc1 [Example 2-102]
6,9 nM,CCOC(=O)C(COC(=O)Cc1ccc(NC(=O)c2ccccc2-c2ccc(C(C)=O)cc2)c(C(=O)N(C)C)c1)(C(=O)OCC)c1ccccc1 [Example 2-43]
7,8.2 nM,CN(C)C(=O)c1cc(CC(=O)OC[C@H](c2ccccc2)N2C(=O)CCC2=O)ccc1NC(=O)c1ccccc1-c1ccc(C(F)(F)F)cc1 [Example 2-26]
8,8.2 nM,CCOC(=O)C(COC(=O)Cc1ccc(NC(=O)c2ccccc2-c2ccc(C(F)(F)F)cc2)c(C(C)C)c1)(C(=O)OCC)c1ccccc1 [Example 1-80]
9,6.4 nM,CCOC(=O)C(CCOC(=O)Cc1cccc(NC(=O)c2ccccc2-c2ccc(C(F)(F)F)cc2)c1OCC)(C(=O)OCC)c1ccccc1 [Example 5-15]
10,4.41 nM,CCOC(=O)C(COC(=O)Cc1ccc(NC(=O)c2ccc(OCC)cc2-c2ccc(C(F)(F)F)cc2)c(C(=O)N(C)C)c1)(C(=O)OCC)c1ccccc1 [Example 2-82]
11,1.92 nM,CCOC(=O)C(COC(=O)Cc1ccc(NC(=O)c2ccccc2-c2ccc(C)cc2)c(C(=O)N(C)C)c1)(C(=O)OCC)c1ccccc1 [Example 2-88]
12,1.3 nM,CCNC(=O)C(CCOC(=O)Cc1cccc(NC(=O)c2ccccc2-c2ccc(C(F)(F)F)cc2)c1OC)(C(=O)NCC)c1ccccc1 [Example 5-12]
13,1.3 nM,CCOC(=O)C(COC(=O)Cc1cc(Cl)c(NC(=O)c2ccccc2-c2ccc(C(F)(F)F)cc2)c(C(=O)N(C)C)c1)(C(=O)OCC)c1ccccc1 [Example 2-60]
14,0.54 nM,C=C(C)c1ccc(-c2ccccc2C(=O)Nc2ccc(CC(=O)OCC(C(=O)OCC)(C(=O)OCC)c3ccccc3)cc2C(=O)N(C)C)cc1 [Example 2-91]
15,0.42 nM,CCOC(=O)C(COC(=O)Cc1ccc(NC(=O)c2c(C)cccc2-c2ccc(C(F)(F)F)cc2)c(C(=O)N(C)C)c1)(C(=O)OCC)c1ccccc1 [Example 2-86]
16,0.34 nM,CCNC(=O)C(CCOC(=O)Cc1cccc(NC(=O)c2ccccc2-c2ccc(C(F)(F)F)cc2)c1OCC)(C(=O)NCC)c1ccccc1 [Example 5-14]
